By Kd is commonly meant the free concentration of one partner at which half of the binding sites on the other are occupied at equilibrium, for simple one-to-one binding. As a reminder, the logD is the decadic logarithm of the distribution of all forms, ionised or not, between an organic phase and buffer at a given pH. A lower logD goes with a more hydrophilic compound.

Series [1] concerns naïve CD4+ T cells (Th1 or Th2 cells). As to the kind of experiment: In vitro Th1 and Th2 differentiation (IFN-γ, IL-4, T-bet, GATA3). Format: cell-based, mouse. Conditions: 20 μM, day 5. How it is done:
In Vitro T Cell Culture. Naïve CD4^+ (CD62L^+ CD44^− CD25^− CD4^+) T cells were isolated from the spleens and the lymph nodes of mice of designated genotypes with FACS sorting. For certain experiments, naïve CD4^+ T cells were enriched using naïve CD4^+ T cell isolation kits (Miltenyi). Naïve CD4^+ T cells (40,000 cells) were cultured in a 96-well plate pre-coated with hamster IgG (MP Biomedicals) in T cell medium (RPMI, 10% fetal bovine serum, 25 mM glutamine, 55 μM 2-mercaptoethanol, 100 U/mL penicillin, […] streptomycin) supplemented with 0.25 μg/mL anti-CD3 (clone 145-2C11) and 1 μg/mL anti-CD28 (clone 37.51). For Th0 culture, T cells were cultured with the addition of 100 U/mL of IL-2 (PEPROTECH). For Th1 cell differentiation, T cells were cultured with the addition of 100 U/mL of IL-2, 10 μg/mL of anti-IL-4 (clone 11B11) and 10 ng/mL of IL-12 (PEPROTECH). For Th2 cell differentiation, T cells were cultured with the addition of 10 μg/mL of anti-IFNγ (clone XMG1.2) and 10 ng/mL of IL-4 (R&D Systems). For Th17 cell differentiation, T cells were cultured with the addition of 10 ng/mL of IL-6 (eBioscience) and 0.5 ng/mL of TGF-β (PEPROTECH). […]
Flow Cytometry. […] All flow cytometry analyses were performed on an LSR II flow cytometer (BD) and data were analyzed with FlowJo software (TreeStar).

Series [2] has as its target T1, recombinant human RORγt ligand-binding domain (LBD) (Homo sapiens, UniProt P51449).
T1 sequence (P51449 269-508 limits assumed): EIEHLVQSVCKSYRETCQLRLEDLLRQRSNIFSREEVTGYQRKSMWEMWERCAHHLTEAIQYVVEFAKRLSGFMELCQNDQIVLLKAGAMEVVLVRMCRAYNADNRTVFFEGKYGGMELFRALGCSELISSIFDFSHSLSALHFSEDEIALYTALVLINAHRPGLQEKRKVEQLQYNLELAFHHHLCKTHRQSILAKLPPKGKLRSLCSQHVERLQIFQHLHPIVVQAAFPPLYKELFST
As to the kind of experiment: Microscale thermophoresis assay. The settings on record: MST, read-out: equilibrium dissociation constant (Kd). How it is done:
(§1) We next examined if 3-oxoLCA physically interacts with the RORγt protein in vitro. A microscale thermophoresis (MST) assay was performed with recombinant human RORγt ligand-binding domain (LBD). […] Next, we examined if 3-oxoLCA modulates the transcriptional activity of RORγt. We assayed the effect of the bile acids on firefly luciferase expression directed by a fusion protein of RORγt and Gal4-DBD (DNA-binding domain) in human embryonic kidney (HEK) 293 cells^14.
Microscale Thermophoresis Assay. The binding affinity of the compounds with RORγ ligand-binding domain (LBD) was analyzed by microscale thermophoresis (MST). Purified RORγ-LBD was labeled with the Monolith NT™ Protein Labeling Kit RED (NanoTemper Technologies). Serially-diluted compounds, with concentrations of 1 mM to 20 nM, were mixed with 55 nM labeled RORγ-LBD at room temperature and loaded into Monolith™ standard-treated capillaries. Binding was measured by monitoring the thermophoresis with 20% LED power and ‘Medium’ MST power on a Monolith NT.115 instrument (Nano Temper Technologies) with the following time setting: 5s Fluo, Before; 20s MST On; and 5s Fluo, After. Kd values were fitted using the NT Analysis software (Nano Temper Technologies).

For series [3], the system named is fusion protein of RORγt and Gal4-DBD. As to the kind of experiment: RORγt luciferase reporter assay in HEK293 cells. The format is cell-based, human. The settings on record: ML209 2 μM, bile acids 10 μM. How it is done: (§2) Data are shown as the mean±standard deviation by unpaired t-test with 2-tailed p-value.
as §1
(In general: Reporter assays use an easily measured gene product as a stand-in for the process of interest.)

Series [4] has as its system lamina propria CD4+ T cells (Th17, Treg). As to the kind of experiment: Anti-CD3 injection gut inflammation model, bile acid diet. The settings on record: 1% diet. Format: in vivo, mouse. The protocol:
as §2
Cells were then analyzed by flow cytometry.

The nature of series [5]: Measurement of lipophilicity (octanol/ammonium bicarbonate partitioning, LC-MS). Conditions: n-octanol / 50 mM ammonium bicarbonate, pH 8.
Protocol: Measurement of lipophilicity. Partitioning Method: 2 μL of 10 mM stock solutions of each target compound was added to a 1 mL each of 50 mM ammonium bicarbonate (pH=8), and 1 mL of n-octanol in an Eppendorf tube. The resulting two-phase mixture was vortexed and then shaken for 18 h at 20° C. The two phases were then carefully separated into the aqueous sample (bottom layer), and organic sample (top-layer) and placed separately in autosampler vials and analyzed by LC-MS/MS. LC-MS Method: a Thermo q-Exactive Plus LC-MS equipped with an Ultimate 3000 HPLC was operated in negative ion mode after optimized to detect the [M− H]^− of the bile acids. […] A Dikma Inspire C8 column (3 μm particle size, 100 mm length, 4.6 mm ID) was used for analysis. Each injection was 5 μL, and a constant flow rate of 0.400 L/min was used. The gradient started at 0% B and was held constant for 2 minutes. Then the mobile phase composition was linearly changed to 100% B over 8 minutes and held at 100% for the following 5 minutes. The mobile phase composition was changed to 0% B over the following 0.1 minutes and the system was allowed to equilibrate to starting conditions over 1.9 minutes. Standards of all targets were used to establish retention times. Better than 2 ppm mass accuracy was obtained on all measurements. The LC-MS analysis was done in triplicate, while the partitioning was done once for each target's [M− H]^− ion. Calculation of log D: the total response of target in octanol was divided by the total response in the aqueous phase to get a partitioning coefficient. Then, log base 10 was taken and reported.
Series [6] deals with colon lamina propria Th17 cells. As to the kind of experiment: Citrobacter rodentium infection of germ-free mice. The format is in vivo, mouse. Conditions: germ-free B6 mice, C. rodentium, 0.3% diet. From the text: For the box plots (a, b), the three horizontal lines of the box represent the third quartile, median and first quartile, respectively from top to bottom. […] Mice were fed an autoclaved diet with or without 3-oxoLCA (0.3%) (n=9 mice/group).

A further series deals with CD4+ T cells. The text has this:
Representative FACS plots of CD4^+ T cells cultured for 3 days and stained intracellularly for FoxP3 (e). Quantification of FoxP3^+ and viable T cells after 3-day culture (f) (n=2/group). n, number of biologically independent samples. Data are representative of two independent experiments (b, d). Data in (c) are shown as the mean±standard deviation.
Naïve CD4^+ T cells were isolated from FoxP3-IRES-GFP mice. d, Flow cytometry of CD4^+ T cells stained intracellularly for FoxP3. Naïve CD4^+ T cells isolated from WT, CNS1, CNS2 or CNS3 knockout mice (n=3/group) were cultured with anti-CD3/28 and IL-2, LCA (20 μM), TGF-β (0.05 ng/ml) and additional retinoic acid (RA; 1 ng/ml). e and f, Flow cytometry (e) and its quantification (f) of CD4^+ T cells stained intracellularly for FoxP3. […] Data are representative of two independent experiments (c, d). Data are shown as the mean±standard deviation by unpaired t-test with 2-tailed p-value.
Flow Cytometry. Cells harvested from in vitro culture or in vivo mice experiments were stimulated with 50 ng/mL PMA (Phorbol 12-myristate 13-acetate, Sigma) and 1 μM ionomycin (Sigma) in the presence of GolgiPlug (BD) for 4 h to determine cytokine expression. After stimulation, cells were stained with cell surface marker antibodies and LIVE/DEAD Fixable dye, Aqua, to exclude dead cells, fixed and permeabilized with a FoxP3/Transcription factor staining kit (eBioscience), followed by staining with cytokine- and/or transcription factor-specific antibodies. All flow cytometry analyses were performed on an LSR II flow cytometer (BD) and data were analyzed with FlowJo software (TreeStar).

Structures are written as SMILES.

In the case of `C[C@H](CCC(=O)O)[C@H]1CC[C@H]2[C@@H]3CC[C@@H]4CC(=O)CC[C@]4(C)[C@H]3CC[C@]12C` [3-oxoLCA, 3-oxolithocholic acid], in series [1], the “T cell differentiation into Th1 or Th2 cells” value is given as “neither compound affected T cell differentiation into Th1 or Th2 cells”. Besides, the Kd in series [2] was around 1000 nM. Moreover, the RORγt reporter activity result in series [3] is “significantly reduced the RORγt reporter activity”. Besides, in series [4], the “Th17 cell levels after anti-CD3 injection” value is on record as “reduced Th17 cell levels”. Moreover, in series [5], the logD at 18 h was 2.4. Besides, the “Th17 cell induction in the colon” value in series [6] is “reduced Th17 cell induction in the colons of germ-free B6 mice infected with Citrobacter rodentium”. Moreover, in the series on CD4+ T cells, the cell viability entry is on record as “do not significantly affect cell proliferation, cell viability”.

The record behind these values is US12103946B2, “Steroid compounds as Treg modulators and uses thereof” (New York University, priority 2018, dated 2024).
